According to PMC8398451, “Molecular Engineering of Curcumin, an Active Constituent of Curcuma longa L. (Turmeric) of the Family Zingiberaceae with Improved Antiproliferative Activity” (Plants, 2021):

What was measured:
CCRF-CEM = assay: NCI antiproliferative SRB assay, Leukemia panel; assay type: cell-based, Human; details: one dose 10 µM
HL-60(TB) = assay: cells; assay type: cell-based; details: one dose 10 µM
MOLT-4 = assay: NCI antiproliferative SRB assay, Leukemia panel; assay type: cell-based, Human; details: one dose 10 µM
NCI-H23 = assay: NCI antiproliferative SRB assay, Non-Small Cell Lung Cancer panel; assay type: cell-based, Human; details: one dose 10 µM
NCI-H460 = assay: as above; assay type: cell-based, Human; details: one dose 10 µM
NCI-H522 = assay: as above; assay type: cell-based, Human; details: one dose 10 µM
HCC-2998 = assay: NCI antiproliferative SRB assay, Colon Cancer panel; assay type: cell-based, Human; details: one dose 10 µM
HT29 = assay: as above; assay type: cell-based, Human; details: one dose 10 µM
SW-620 = assay: as above; assay type: cell-based, Human; details: one dose 10 µM
SF-268 = assay: NCI antiproliferative SRB assay, CNS Cancer panel; assay type: cell-based, Human; details: one dose 10 µM
U251 = assay: NCI antiproliferative SRB assay, CNS Cancer panel; assay type: cell-based; details: U251; one dose 10 µM
MALME-3M = assay: NCI antiproliferative SRB assay, Melanoma panel; assay type: cell-based, Human; details: one dose 10 µM
SK-MEL-28 = assay: NCI antiproliferative SRB assay, Melanoma panel; assay type: cell-based, Human; details: one dose 10 µM
UACC-62 = assay: NCI antiproliferative SRB assay, Melanoma panel; assay type: cell-based, Human; details: one dose 10 µM
IGROV1 = assay: NCI antiproliferative SRB assay, Ovarian Cancer panel; assay type: cell-based, Human; details: one dose 10 µM
OVCAR-3 = assay: as above; assay type: cell-based, Human; details: one dose 10 µM
OVCAR-4 = assay: as above; assay type: cell-based, Human; details: one dose 10 µM
OVCAR-5 = assay: as above; assay type: cell-based, Human; details: one dose 10 µM
NCI/ADR-RES = assay: as above; assay type: cell-based, Human; details: one dose 10 µM
SK-OV-3 = assay: as above; assay type: cell-based, Human; details: one dose 10 µM
CAKI-1 = assay: NCI antiproliferative SRB assay, Renal Cancer panel; assay type: cell-based, Human; details: one dose 10 µM
TK-10 = assay: as above; assay type: cell-based, Human; details: one dose 10 µM
UO-31 = assay: as above; assay type: cell-based, Human; details: one dose 10 µM
MCF7 = assay: NCI antiproliferative SRB assay, Breast Cancer panel; assay type: cell-based, Human; details: one dose 10 µM
MDA-MB-231 = assay: as above; assay type: cell-based; details: one dose 10 µM
HS 578T = assay: as above; assay type: cell-based, Human; details: one dose 10 µM
Leukemia cell line panel = assay: NCI antiproliferative assay, panel summary; assay type: cell-based, Human; details: 10 µM
[1] = test system: Colon Cancer cell line panel; assay: NCI antiproliferative assay, panel summary; assay type: cell-based, Human; details: 10 µM
Melanoma cell line panel = assay: NCI antiproliferative assay, panel summary; assay type: cell-based, Human; details: 10 µM
[2] = test system: Prostate Cancer cell line panel; assay: NCI antiproliferative assay, panel summary; assay type: cell-based, Human; details: 10 µM
[3] = test system: Breast Cancer cell line panel; assay: NCI antiproliferative assay, panel summary; assay type: cell-based, Human; details: 10 µM

Compound: COc1ccc(/C=C/c2cc(/C=C/c3ccc(OC)c(O)c3)n(-c3cccc(Cl)c3)c(=S)n2)cc1O [3a]
- %GI (CCRF-CEM): 46.57%
- GP (growth percent) (CCRF-CEM): 53.43
- %GI (HL-60(TB)): 16.52%
- GP (growth percent) (HL-60(TB)): 83.48
- %GI (MOLT-4): 53.78%
- GP (growth percent) (MOLT-4): 46.22
- %GI (NCI-H23): 9.05%
- GP (growth percent) (NCI-H23): 90.95
- %GI (NCI-H460): 10.49%
- GP (growth percent) (NCI-H460): 89.51
- %GI (NCI-H522): 62.11%
- GP (growth percent) (NCI-H522): 37.89
- %GI (HCC-2998): −3.70%
- GP (growth percent) (HCC-2998): 103.70
- %GI (HT29): 53.43%
- GP (growth percent) (HT29): 46.57
- %GI (SW-620): 10.52%
- GP (growth percent) (SW-620): 89.48
- %GI (SF-268): 16.24%
- GP (growth percent) (SF-268): 83.76
- %GI (U251): 40.59%
- GP (growth percent) (U251): 59.41
- %GI (MALME-3M): 10.54%
- GP (growth percent) (MALME-3M): 89.46
- %GI (SK-MEL-28): 7.56%
- GP (growth percent) (SK-MEL-28): 92.44
- %GI (UACC-62): 17.81%
- GP (growth percent) (UACC-62): 82.19
- %GI (IGROV1): 4.74%
- GP (growth percent) (IGROV1): 95.26
- %GI (OVCAR-3): 8.70%
- GP (growth percent) (OVCAR-3): 91.30
- %GI (OVCAR-4): 17.45%
- GP (growth percent) (OVCAR-4): 82.55
- %GI (OVCAR-5): −12.92%
- GP (growth percent) (OVCAR-5): 112.92
- %GI (NCI/ADR-RES): 3.63%
- GP (growth percent) (NCI/ADR-RES): 96.37
- %GI (SK-OV-3): −0.88%
- GP (growth percent) (SK-OV-3): 100.88
- %GI (CAKI-1): 20.96%
- GP (growth percent) (CAKI-1): 79.04
- %GI (TK-10): −12.60%
- GP (growth percent) (TK-10): 112.60
- %GI (UO-31): 28.74%
- GP (growth percent) (UO-31): 71.26
- %GI (MCF7): 32.09%
- GP (growth percent) (MCF7): 67.91
- %GI (MDA-MB-231): 31.75%
- GP (growth percent) (MDA-MB-231): 68.25
- %GI (HS 578T): 15.67%
- GP (growth percent) (HS 578T): 84.33
- Mean % GI (Leukemia cell line panel): 41.39%
- Mean % GI [1]: 16.72%
- Mean % GI (Melanoma cell line panel): 17.21%
- Mean % GI [2]: 14.98%
- Mean % GI [3]: 26.56%
